# According to article doi:10.1101/2024.12.03.626577v1 (biorxiv, 2024):
# Target: T1, TRIM21^PRY-SPRY (287-465aa) (Homo sapiens, UniProt P19474)
# Experiment: SPR
# Assay type: binding
# Details: not given
# T1 sequence (P19474 287-465): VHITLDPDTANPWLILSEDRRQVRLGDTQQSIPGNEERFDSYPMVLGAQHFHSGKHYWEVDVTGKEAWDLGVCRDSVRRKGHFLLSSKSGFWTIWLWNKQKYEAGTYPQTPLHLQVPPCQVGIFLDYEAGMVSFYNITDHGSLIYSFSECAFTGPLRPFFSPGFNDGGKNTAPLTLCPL
row,Kd,SMILES
1,123 nM,"CSc1ccccc1-c1ccc(C(=O)N(C)CC2CCCCC2)c(S(C)(=O)=O)c1 [1a, Compound 1a]"
2,29 nM,"CSc1ccccc1-c1ccc(C(=O)N(C)CC2CCOCC2)c(S(C)(=O)=O)c1 [1b, Compound 1b]"
3,17 nM,"CSc1ccccc1-c1ccc(C(=O)N(C)Cc2cc[nH]c2)c(S(C)(=O)=O)c1 [1c, Compound 1c]"
4,171 nM,"CSc1ccccc1-c1ccc(C(=O)N(C)Cc2ccon2)c(S(C)(=O)=O)c1 [1d, Compound 1d]"
5,581 nM,"CCc1ccccc1CN(C)C(=O)c1ccc(-c2ccccc2SC)cc1S(C)(=O)=O [1e, Compound 1e]"
6,350 nM,"CSc1ccccc1-c1ccc(C(=O)N(C)CC2CCOC2)c(S(C)(=O)=O)c1 (centres unmarked) [1f, Compound 1f]"
7,11 nM,"CSc1ccccc1-c1ccc(C(=O)N(C)Cc2cc[nH]c(=O)c2)c(S(C)(=O)=O)c1 [1g, Compound 1g]"
8,234 nM,"CSc1ccccc1-c1ccc(C(=O)N(C)CC2CCCCC2(F)F)c(S(C)(=O)=O)c1 (centres unmarked) [2a, Compound 2a]"
9,2150 nM,"CN(CC1CCCCC1)C(=O)c1ccc(-c2ccccc2F)cc1S(C)(=O)=O [2b, Compound 2b]"
10,610 nM,"Cc1ccccc1-c1ccc(C(=O)N(C)CC2CCCCC2)c(S(C)(=O)=O)c1 [2c, Compound 2c]"
11,1570 nM,"COc1cnccc1-c1ccc(C(=O)N(C)CC2CCCCC2)c(S(C)(=O)=O)c1 [2d, Compound 2d]"

# Target: T1, TRIM21^PRY-SPRY (287-465aa)
# Experiment: SPR
# Assay type: binding
# Details: not given
# Remark: another data set of the same source
row,Kd,SMILES
1,193 nM,"CSc1ccccc1-c1ccc(C(=O)N(C)CC2(F)CCCCC2)c(S(C)(=O)=O)c1 [compound 1, Compound 1]"

# Test system: PANC-1
# Experiment: cells
# Details: Homo sapiens, PANC-1, 72 h, read-out: PANC-1 IC50 (µM)
row,IC50,SMILES
1,0.329 µM,"CSc1ccccc1-c1ccc(C(=O)N(C)CC2CCCCC2(F)F)c(S(C)(=O)=O)c1 (centres unmarked) [2a, Compound 2a]"
2,5.14 µM,"CN(CC1CCCCC1)C(=O)c1ccc(-c2ccccc2F)cc1S(C)(=O)=O [2b, Compound 2b]"
3,1.62 µM,Cc1ccccc1-c1ccc(C(=O)N(C)CC2CCCCC2)c(S(C)(=O)=O)c1 [2c]
4,0.791 µM,COc1cnccc1-c1ccc(C(=O)N(C)CC2CCCCC2)c(S(C)(=O)=O)c1 [2d]
5,0.094 µM,CSc1cc(F)ccc1-c1ccc(C(=O)N(C)CC2CCCCC2)c(S(C)(=O)=O)c1 [2e]
